In EPA's ToxRefDB 2:

Legend:
mouse [1] = conditions: Subchronic oral toxicity in rodents, b6c3f1, Feed, dose end: 13 week, group: systemic
mouse [2] = conditions: Sub-acute repeat dose toxicity, b6c3f1, Oral, Feed, dose end: 14 day, group: systemic
rat [3] = conditions: Sub-acute repeat dose toxicity, fischer, Oral, Feed, dose end: 14 day, group: systemic
rat [4] = conditions: Subchronic oral toxicity in rodents, fischer, Feed, dose end: 13 week, group: systemic
rat [5] = conditions: Carcinogenicity; fischer; Oral; Feed; dose end: 103 week; group: systemic; systemic / in life observation / body weight / body weight
mouse [6] = conditions: Carcinogenicity, b6c3f1, Oral, Feed, dose end: 103 week, group: systemic
rat [7] = conditions: Developmental neurotoxicity study; long evans; Injection; Subcutaneous; dose end: 90 PND; group: cannot be grouped; reproductive / reproductive performance / sex ratio / sex ratio (% male)
rat [8] = conditions: Multigenerational reproductive toxicity study, other, Oral, Feed, dose end: 2 generation
mouse [9] = conditions: Carcinogenicity; cd1; Oral; Feed; dose end: 18 month; group: systemic; systemic / pathology microscopic / liver / hypertrophy
mouse [10] = conditions: Carcinogenicity; cd1; Oral; Feed; dose end: 18 month; group: systemic; systemic / organ weight / liver / nos + systemic / pathology microscopic / liver / deformity + systemic / pathology microscopic / liver / …
dog [11] = conditions: Chronic toxicity, beagle, Oral, Feed, dose end: 26 week, group: systemic
mouse [12] = conditions: Subchronic oral toxicity in rodents, cd1, Feed, dose end: 90 day, group: systemic, systemic / organ weight / liver / absolute + systemic / organ weight / liver / relative to body weight + systemic / organ weight / liver / …
rat [13] = conditions: Combined chronic toxicity/carcinogenicity, sprague dawley, Oral, Feed, dose end: 104 week, group: systemic
dog [14] = conditions: Chronic toxicity, beagle, Oral, Feed, dose end: 52 week, group: systemic
[15] = systemic / in life observation / body weight / body weight gain
[16] = systemic / in life observation / body weight / body weight gain + systemic / in life observation / body weight / body weight
[17] = systemic / in life observation / body weight / body weight
[18] = systemic / in life observation / body weight / body weight + systemic / in life observation / food consumption / food consumption + systemic…
[19] = systemic / in life observation / body weight / body weight gain + systemic / in life observation / food consumption / food consumption + …
[20] = systemic / in life observation / body weight / body weight + systemic / pathology microscopic / liver / adenoma/carcinoma combined + …
[21] = group: offspring, systemic / in life observation / body weight / offspring (pup) weight + systemic / in life observation / body weight / offspring (pup) …
[22] = group: parental, systemic / organ weight / liver / relative to body weight
[23] = systemic / pathology microscopic / prostate / atrophy + systemic / pathology microscopic / testes / atrophy
[24] = systemic / pathology microscopic / prostate / atrophy + systemic / pathology microscopic / testes / atrophy + systemic / pathology …
[25] = systemic / clinical chemistry / cholesterol / cholesterol + systemic / in life observation / body weight / body weight gain + systemic / …
[26] = systemic / in life observation / body weight / body weight + systemic / in life observation / body weight / body weight gain + systemic / …

CCCCC(CC)COC(=O)CCCCC(=O)OCC(CC)CCCC (stereo not given) [Di(2-ethylhexyl) adipate]
LEL (mouse [1]; [15]): 465 mg/kg/day | LOAEL (mouse [1]; [16]): > 3750 mg/kg/day | NEL (mouse [1]; [16]): 240 mg/kg/day | NOAEL (mouse [1]; [16]): ≥ 3750 mg/kg/day | LEL (mouse [2]; [17]): 3750 mg/kg/day | LOAEL (mouse [2]; [17]): 7500 mg/kg/day | NEL (mouse [2]; [18]): 1880 mg/kg/day | NOAEL (mouse [2]; [18]): 3750 mg/kg/day | LEL (rat [3]; [15]): 1250 mg/kg/day | LOAEL (rat [3]; [15]): 2500 mg/kg/day | NEL (rat [3]; [19]): 625 mg/kg/day | NOAEL (rat [3]; [19]): 1250 mg/kg/day | LEL (rat [4]; [15]): 625 mg/kg/day | LOAEL (rat [4]; [15]): 625 mg/kg/day | NEL (rat [4]; [16]): 315 mg/kg/day | NOAEL (rat [4]; [16]): 315 mg/kg/day | LEL (rat [5]): 1250 mg/kg/day | LOAEL (rat [5]): 1250 mg/kg/day | NEL (rat [5]): 600 mg/kg/day | NOAEL (rat [5]): 600 mg/kg/day | LOAEL (mouse [6]; [17]): 1800 mg/kg/day | NOAEL (mouse [6]; [17]): < 1800 mg/kg/day | LEL (mouse [6]; [20]): 1800 mg/kg/day | NEL (mouse [6]; [20]): < 1800 mg/kg/day

CCN(CC)CC(=O)Nc1c(C)cccc1C [Lidocaine]
LEL (rat [7]): 6 mg/kg/day | LOAEL (rat [7]): > 9 mg/kg/day | NEL (rat [7]): 3 mg/kg/day | NOAEL (rat [7]): ≥ 9 mg/kg/day

CC1OC(C)OC(C)OC(C)O1 (stereo not given) [Metaldehyde acetaldehyde tetramer]
LEL (rat [8]; [21]): 134 mg/kg/day | LOAEL (rat [8]; [21]): 134 mg/kg/day | NEL (rat [8]; [21]): 64.9 mg/kg/day | NOAEL (rat [8]; [21]): 64.9 mg/kg/day | LEL (rat [8]; group: parental, systemic / in life observation / body weight / body weight + systemic / in life observation / body weight / body weight gain): 80.5 mg/kg/day | NEL (rat [8]; group: parental, systemic / in life observation / body weight / body weight + systemic / in life observation / body weight / body weight gain + systemic / in…): 4.03 mg/kg/day | LOAEL (rat [8]; [22]): 134 mg/kg/day | NOAEL (rat [8]; [22]): 64.9 mg/kg/day | LEL (mouse [9]): 48.9 mg/kg/day | LOAEL (mouse [9]): 48.9 mg/kg/day | NEL (mouse [9]): 15.9 mg/kg/day | NOAEL (mouse [9]): 15.9 mg/kg/day | LEL (mouse [10]): 135 mg/kg/day | LOAEL (mouse [10]): 135 mg/kg/day | NEL (mouse [10]): < 135 mg/kg/day | NOAEL (mouse [10]): < 135 mg/kg/day | LEL (dog [11]; [23]): 60 mg/kg/day | LOAEL (dog [11]; [23]): 60 mg/kg/day | NEL (dog [11]; [24]): 20 mg/kg/day | NOAEL (dog [11]; [24]): 20 mg/kg/day | LEL (mouse [12]): 178 mg/kg/day | LOAEL (mouse [12]): 178 mg/kg/day | NEL (mouse [12]): 54 mg/kg/day | NOAEL (mouse [12]): 54 mg/kg/day | LOAEL (rat [13]; [25]): 44 mg/kg/day | NOAEL (rat [13]; [25]): 2 mg/kg/day | LEL (rat [13]; [15]): 3 mg/kg/day | NEL (rat [13]; [15]): < 3 mg/kg/day | LEL (dog [14]; [26]): 10 mg/kg/day | NEL (dog [14]; [26]): < 10 mg/kg/day | NOAEL (dog [14]; systemic / in life observation / mortality / mortality + systemic / clinical chemistry / alkaline phosphatase (alp/alk) / alkaline …): 10 mg/kg/day | LOAEL (dog [14]; systemic / in life observation / mortality / mortality + systemic / pathology microscopic / prostate / atrophy + systemic / pathology …): 30 mg/kg/day
